Columns and labels:
[1] = target: human purified sGC (heterodimer of sGCα1 and sGCβ1) (Homo sapiens (Human), UniProt Q02108+Q02153); assay: sGC activation test (cGMP produced, HTRF); assay type: biochemical; conditions: for EC50: maximum activity of Preparation Example 200 compound (maximum 100 μM) taken as 100%, with SNP, read-out: EC50 (concentration giving 50% of maximum activity)
Method: The activity of sGC was evaluated by measuring the amount of cGMP produced by human purified sGC.
Using an sGCα 1 gene (NCBI accession No. BC028384.2) and an sGCβ1 gene (NCBI accession No. BC047620.1), an N-terminal FLAG tag-fused sGCα1 and an sGCβ1 expression baculovirus were prepared. These viruses were transfected into insect cells Sf9 (Cat. No. 11496-015, Gibco) to express a protein. From the cell lysates of the insect cells, heterodimers of the N-terminal FLAG tag-fused sGCα1 and sGCβ1 were purified with an M2 Affinity Gel (Sigma-Aldrich, Inc.) to obtain a human sGC.
An Example compound was dissolved in DMSO and diluted 20-fold with ultrapure water. 2 μL of the diluted Example compound solution (maximum concentration of 100 μM), 2 μL of a substrate solution [0.5 μM triethanolamine buffer solution, 0.03 μM dithiothreitol, 0.01 μM GTP, 0.04 μM MgCl2, and 0.03 μM sodium nitroprusside (SNP)], and 6 μL of a human enzyme suspension were added to 384-well plates (manufactured by Greiner Bio-One), and incubated at room temperature for one hour. The measurement of the amount of cGMP was carried out, using an HTRF reagent (Cisbio).
The sGC activation action of the Example compound was calculated as an Example compound concentration which gives 50% of a maximum activity (EC50), in which the maximum activity by the addition of a compound shown in Preparation Example 200, 8-(cyclohexylmethoxy)-N-[(1R)-2-hydroxy-1-phenylethyl]-2-methylimidazo[1,2-a]pyridine-3-carboxamide hydrochloride (maximum 100 μM), is taken as 100%. Further, the maximum activity of sGC with the addition of 8-(cyclohexylmethoxy)-N-[(1R)-2-hydroxy-1-phenylethyl]-2-methylimidazo[1,2-a]pyridine-3-carboxamide hydrochloride is 10-fold or more relative to the sGC activation without the addition of the compound, and it is recognized that the compound has a good sGC activating action. […] The test results of some Example compounds that are the compounds of the formula (I) of the present invention are shown below. Further, in Tables, Ex. represents Example number.

[2] = test system: hind limb blood flow in rats anesthetized with pentobarbital; assay: Blood flow increasing action in vivo (hind limb blood flow, anesthetized rats); parameters: species or system Wistar male rats; conditions: oral, 2 hours after administration, effective when blood flow rate 130% or more of solvent group
Method: The hind limb blood flow increasing action in rats anesthetized with pentobarbital was confirmed by the following test method.
Wistar male rats, 11- to 14-week (Japan SLC, Inc.) were used. An administration liquid was prepared by adding N,N-dimethyl formamide, Polyethylene Glycol 400, TWEEN 80, a 0.5% methyl cellulose aqueous solution, a 0.5 M aqueous sodium hydrogen carbonate solution, and 0.1 M hydrochloric acid to the test compound and dissolving the Example compound in an appropriate manner depending on the compound. The prepared administration liquid was orally administered, and 2 hours later, the hind limb blood flow increasing action was evaluated under anesthesia with intraperitoneally administration of 60 mg/kg of pentobarbital The hind limb blood flow was measured using a laser blood flow imaging device (PIM II Integral). By taking the average blood flow rate of a group with the administration of a solvent as 100%, the compound was evaluated to be effective when the blood flow rate was 130% or more by the administration of the compound.

human purified sGC (heterodimer of sGCα1 and sGCβ1), sequence (Q02108 whole entry): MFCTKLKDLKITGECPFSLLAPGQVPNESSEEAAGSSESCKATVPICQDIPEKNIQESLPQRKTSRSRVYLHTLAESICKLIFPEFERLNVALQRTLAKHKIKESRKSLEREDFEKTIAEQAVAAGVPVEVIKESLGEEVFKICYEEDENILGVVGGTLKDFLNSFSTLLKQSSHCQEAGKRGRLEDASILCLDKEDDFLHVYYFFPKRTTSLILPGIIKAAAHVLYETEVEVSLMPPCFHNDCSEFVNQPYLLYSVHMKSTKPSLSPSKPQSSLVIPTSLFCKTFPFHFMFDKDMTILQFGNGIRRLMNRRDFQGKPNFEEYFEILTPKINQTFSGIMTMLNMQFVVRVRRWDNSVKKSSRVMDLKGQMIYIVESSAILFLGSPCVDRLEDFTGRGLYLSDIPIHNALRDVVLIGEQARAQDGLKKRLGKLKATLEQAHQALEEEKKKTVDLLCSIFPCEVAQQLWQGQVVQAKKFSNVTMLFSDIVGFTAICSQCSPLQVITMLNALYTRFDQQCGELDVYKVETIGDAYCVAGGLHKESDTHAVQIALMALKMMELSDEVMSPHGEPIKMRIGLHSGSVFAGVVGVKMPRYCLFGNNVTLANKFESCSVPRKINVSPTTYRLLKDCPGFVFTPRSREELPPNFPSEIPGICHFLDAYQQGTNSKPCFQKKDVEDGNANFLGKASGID
human purified sGC (heterodimer of sGCα1 and sGCβ1), sequence (Q02153 whole entry): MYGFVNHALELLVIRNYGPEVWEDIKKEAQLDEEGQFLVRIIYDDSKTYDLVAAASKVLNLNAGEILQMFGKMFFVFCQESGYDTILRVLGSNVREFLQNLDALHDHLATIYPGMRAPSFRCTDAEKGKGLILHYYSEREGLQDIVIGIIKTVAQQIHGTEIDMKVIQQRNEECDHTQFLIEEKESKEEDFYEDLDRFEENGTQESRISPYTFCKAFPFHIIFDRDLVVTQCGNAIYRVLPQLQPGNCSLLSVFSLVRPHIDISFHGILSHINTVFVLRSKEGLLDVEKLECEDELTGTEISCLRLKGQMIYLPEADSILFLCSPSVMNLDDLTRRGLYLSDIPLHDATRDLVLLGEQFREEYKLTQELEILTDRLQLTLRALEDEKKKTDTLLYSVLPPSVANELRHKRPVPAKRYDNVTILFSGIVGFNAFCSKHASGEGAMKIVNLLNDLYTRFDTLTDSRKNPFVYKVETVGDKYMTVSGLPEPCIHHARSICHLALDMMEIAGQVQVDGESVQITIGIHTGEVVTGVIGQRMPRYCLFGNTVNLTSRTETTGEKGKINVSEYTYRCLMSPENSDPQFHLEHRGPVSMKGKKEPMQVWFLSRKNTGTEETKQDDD

Compound | EC50 [1] [µM] | further results
Cc1nc2c(OCc3c(F)cccc3F)cccn2c1C(=O)N[C@@](C)(CO)c1ccc(CO)cc1 (stereo in doubt) [Example 107a, 8-[(2,6-difluorobenzyl)oxy]-N-{1-hydroxy-2-[4-(hydroxymethyl)phenyl]propan-2-yl}-2-methylimidazo[1,2-a]pyridine-3-carboxamide] | 1.5 | hind limb blood flow increasing action ([2]; 3 mg/kg): exhibited a blood flow increasing action
Cc1nc2c(OCc3c(F)cccc3F)cccn2c1C(=O)N[C@@](C)(CO)c1nnn(C)n1 (stereo in doubt) [Example 108a, 8-[(2,6-difluorobenzyl)oxy]-N-[1-hydroxy-2-(2-methyl-2H-tetrazol-5-yl)propan-2-yl]-2-methylimidazo[1,2-a]pyridine-3-carboxamide] | 4.6 | hind limb blood flow increasing action ([2]; 0.3 mg/kg): exhibited a blood flow increasing action
Cc1nc2c(OCc3c(F)cccc3F)cccn2c1C(=O)N[C@@H](CO)c1nnc(C2CC2)o1 [Example 46] | 20 | 
Cc1nc2c(OCC3CCCCC3)cccn2c1C(=O)N[C@@H](CO)c1nnc(C2CC2)o1 [Example 47] | 13 | 
Cc1nc2c(OCc3c(F)cccc3F)cccn2c1C(=O)NC(C)(CO)c1cncnc1 (centres unmarked) [Example 48] | 2.7 | 
Cc1nc2c(OCc3c(F)cccc3F)cccn2c1C(=O)NC(CO)c1cnn(C)c1 (centres unmarked) [Example 49] | 25 | 
Cc1nc2c(OCc3c(F)cccc3F)cccn2c1C(=O)NC(C)(CO)c1cnn(C)c1 (centres unmarked) [Example 50] | 7.9 | 
Cc1nc2c(OCc3ccccc3F)cccn2c1C(=O)NC(C)(CO)c1ccc(CO)cc1 (centres unmarked) [Example 51] | 12 | 
Cc1nc2c(OCc3c(F)cccc3F)cccn2c1C(=O)NC(CO)(CO)c1cccc(CO)c1 [Example 53] | 1.7 | 
Cc1nc2c(OCc3c(F)cccc3F)cccn2c1C(=O)NC(CO)(CO)c1cccc(F)c1 [Example 55] | 2 | 
Cc1ccc(C(CO)(CO)NC(=O)c2c(C)nc3c(OCc4c(F)cccc4F)cccn23)nc1 [Example 56] | 8.5 | 
Cc1nc2c(OCc3c(F)cccc3F)cccn2c1C(=O)NC(CO)(CO)c1ccc(F)cn1 [Example 57] | 3.7 | 
COc1ccc(C(CO)(CO)NC(=O)c2c(C)nc3c(OCc4c(F)cccc4F)cccn23)cn1 [Example 58] | 3.3 | 
Cc1cnc(C(CO)(CO)NC(=O)c2c(C)nc3c(OCc4c(F)cccc4F)cccn23)o1 [Example 60] | 12 | 
Cc1nc2c(OCc3cccc(F)c3F)cccn2c1C(=O)NC(CO)(CO)c1ccc(F)cc1 [Example 61] | 6.4 | 
Cc1ccnc(C(CO)(CO)NC(=O)c2c(C)nc3c(OCc4c(F)cccc4F)cccn23)c1 [Example 62] | 6.5 | 
Cc1nc2c(OCc3c(F)cccc3F)cccn2c1C(=O)NC(CO)(CO)c1nnn(C)n1 [Example 64] | 30 | 
Cc1nc2c(OCC3CCCCC3)cccn2c1C(=O)NC(CO)(CO)c1nnn(C)n1 [Example 66] | 16 | 
Cc1nc2c(OCC3CCCCC3)cccn2c1C(=O)N[C@]1(c2ccccn2)C[C@@H](O)[C@@H](O)C1 [Example 68] | 14 | 
Cc1nc2c(OCc3c(F)cccc3F)cccn2c1C(=O)NC(CO)(CO)c1cnn(C)c1 [Example 71] | 21 | 
Cc1nc2c(OCC3CCCCC3)cccn2c1C(=O)NC(C)(CO)c1nnn(C)n1 (centres unmarked) [Example 73a] | 6.4 | 
COCCn1nnc(C(C)(CO)NC(=O)c2c(C)nc3c(OCc4c(F)cccc4F)cccn23)n1 (centres unmarked) [Example 74] | 12 | 
Cc1nc2c(OCc3c(F)cccc3F)cccn2c1C(=O)NC(C)(CO)c1nnn(CCO)n1 (centres unmarked) [Example 75] | 9.1 | 
Cc1ncc(C(CO)(CO)NC(=O)c2c(C)nc3c(OCc4c(F)cccc4F)cccn23)s1 [Example 78] | 5.1 | 
Cc1nc2c(OCc3c(F)cccc3F)cccn2c1C(=O)NC(C)(C)c1cccc(C(N)=O)c1 [Example 80] | 7.1 | 

Compound | EC50 [1] [µM] | further results
Cc1nc2c(OCc3cccc(F)c3F)cccn2c1C(=O)NC(C)(CO)c1nnn(C)n1 (centres unmarked) [Example 82] | 21 | 
Cc1nnc(C(C)(CO)NC(=O)c2c(C)nc3c(OCC4CCCCC4)cccn23)o1 (centres unmarked) [Example 84] | 7.1 | 
[C-]#[N+]c1cccc([C@](C)(CO)NC(=O)c2c(C)nc3c(OCC4CCCCC4)cccn23)c1 [Example 85] | 2.9 | 
CCc1nnc(C(C)(CO)NC(=O)c2c(C)nc3c(OCC4CCCCC4)cccn23)o1 (centres unmarked) [Example 86] | 5.6 | 
Cc1nc2c(OCc3c(F)cccc3F)cccn2c1C(=O)NC(C)(CO)c1nnc(C2CC2)o1 (centres unmarked) [Example 87] | 5.9 | 
Cc1nc2c(OCC3CCCCC3)cccn2c1C(=O)NC(C)(CO)c1nnc(C2CC2)o1 (centres unmarked) [Example 88] | 5.3 | 
Cc1nc2c(OCC3CCCCC3)cccn2c1C(=O)NC(C)(CO)c1nnc(C(F)(F)F)o1 (centres unmarked) [Example 92] | 1.4 | 
Cc1nc2c(OCc3c(F)cccc3F)cccn2c1C(=O)NC(C)(CO)c1cnn(C)c1C (centres unmarked) [Example 93] | 21 | 
Cc1nn(C)cc1C(C)(CO)NC(=O)c1c(C)nc2c(OCc3c(F)cccc3F)cccn12 (centres unmarked) [Example 94] | 14 | 
Cc1nc2c(OCc3c(F)cccc3F)cccn2c1C(=O)NC(CO)(CO)c1ccn(C)n1 [Example 95] | 18 | 
Cc1nc2c(OCC3CCCCC3)cccn2c1C(=O)NC(CO)(CO)c1nnn(C(F)F)n1 [Example 97] | 3.5 | 
Cc1nnc(C(CO)(CO)NC(=O)c2c(C)nc3c(OCC4CCCCC4)cccn23)o1 [Example 98] | 24 | 
CCc1nnc(C(CO)(CO)NC(=O)c2c(C)nc3c(OCC4CCCCC4)cccn23)o1 [Example 99] | 17 | 
Cc1nc2c(OCC3CCCCC3)cccn2c1C(=O)NC(CO)(CO)c1nnc(C2CC2)o1 [Example 100] | 20 | 
CCn1cc(C(CO)(CO)NC(=O)c2c(C)nc3c(OCc4c(F)cccc4F)cccn23)cn1 [Example 101] | 26 | 
Cc1nc2c(OCC3CCCCC3)cccn2c1C(=O)N[C@@](C)(CO)c1cccc(-c2nnn(C)n2)c1 [Example 102] | 2.6 | 
Cc1nc2c(OCc3c(F)cccc3F)cccn2c1C(=O)NC(C)(CO)c1nnn(CC2CC2)n1 (centres unmarked) [Example 103] | 6.1 | 
Cc1nc2c(OCC3CCCCC3)cccn2c1C(=O)NC(C)(CO)c1nnn(CCO)n1 (centres unmarked) [Example 104] | 7.5 | 
Cc1nc2c(OCc3c(F)cccc3F)cccn2c1C(=O)NC(C)(CO)c1nnn(CC(C)(C)O)n1 (centres unmarked) [Example 105, 8-[(2,6-difluorobenzyl)oxy]-N-{1-hydroxy-2-[2-(2-hydroxy-2-methylpropyl)-2H-tetrazol-5-yl]propan-2-yl}-2-methylimidazo[1,2-a]pyridine-3-carboxamide] | 11 | 
Cc1nc2c(OCc3c(F)cccc3F)cccn2c1C(=O)NC(C)(CO)c1nnn(CC(C)O)n1 (centres unmarked) [Example 106] | 9.1 | 
Cc1nn(C)cc1C(CO)(CO)NC(=O)c1c(C)nc2c(OCc3c(F)cccc3F)cccn12 [Example 109] | 23 | 
Cc1nc2c(OCc3c(F)cccc3F)cccn2c1C(=O)N[C@@H](CO)c1nnn(C(C)C)n1 [Example 110] | 12 | 
Cc1nc2c(OCC3CCCCC3)cccn2c1C(=O)N[C@@](C)(CO)c1cccc(-c2nn[nH]n2)c1 [Example 111] | 0.56 | 
Cc1nc2c(OCC3CCCCC3)cccn2c1C(=O)N[C@@H](CO)c1ccccc1.Cl [Preparation Example 200, 8-(cyclohexylmethoxy)-N-[(1R)-2-hydroxy-1-phenylethyl]-2-methylimidazo[1,2-a]pyridine-3-carboxamide hydrochloride, reference compound] |  | maximum activity of sGC relative to sGC activation without the addition of the compound ([1]; maximum 100 μM): ≥ 10 fold
OCc1ccc(-c2nn(Cc3ccccc3)c3ccccc23)o1 [YC-1, [5-(1-benzyl-1H-indazol-3-yl)-2-furyl]methanol, reference compound] | 50 | maximum activity relative to maximum activity of Preparation Example 200 compound ([1]; maximum activity of Preparation Example 200 compound = 100%): 52%

From patent publication US9278968B2, “Imidazopyridine compounds” (ASTELLAS PHARMA INC., priority 2012, dated 2016)
